From the NIST ThermoML archive (doi:10.1016/j.tca.2004.11.015)
Numbers after ± are expanded uncertainties.

Assay: xn = mol fraction of the nth substance listed
Conditions: 101.33 kPa, Liquid, Vibrating tube method

NCCO [2-aminoethan-1-ol] + CO
mass density [kg/m3]
Conditions	283.15 K	288.15 K	293.15 K	298.15 K
x1 = 0.012	805.83 ± 0.14	801.17 ± 0.14	796.49 ± 0.15	791.8 ± 0.15
x1 = 0.031	813.82 ± 0.14	809.2 ± 0.14	804.57 ± 0.15	799.92 ± 0.15
x1 = 0.05	821.45 ± 0.14	816.86 ± 0.14	812.26 ± 0.14	807.64 ± 0.15
x1 = 0.1	840.61 ± 0.14	836.11 ± 0.15	831.59 ± 0.15	827.05 ± 0.15
x1 = 0.15	858.27 ± 0.15	853.79 ± 0.15	849.33 ± 0.16	844.86 ± 0.16
x1 = 0.2002	874.67 ± 0.17	870.3 ± 0.17	865.9 ± 0.17	861.49 ± 0.17
x1 = 0.2501	889.65 ± 0.18	885.33 ± 0.18	880.98 ± 0.18	876.62 ± 0.18
x1 = 0.2974	902.94 ± 0.2	898.66 ± 0.2	894.35 ± 0.2	890.03 ± 0.2
x1 = 0.3502	916.72 ± 0.22	912.48 ± 0.22	908.21 ± 0.22	903.94 ± 0.22
x1 = 0.4001	928.53 ± 0.24	924.32 ± 0.24	920.09 ± 0.24	915.84 ± 0.24
x1 = 0.4427	938.12 ± 0.26	933.94 ± 0.26	929.73 ± 0.26	925.51 ± 0.26
x1 = 0.4502	939.89 ± 0.26	935.71 ± 0.26	931.52 ± 0.26	927.31 ± 0.26
x1 = 0.5002	950.16 ± 0.28	946.01 ± 0.28	941.84 ± 0.28	937.66 ± 0.28
x1 = 0.5501	959.78 ± 0.3	955.65 ± 0.3	951.5 ± 0.3	947.35 ± 0.3
x1 = 0.6001	968.89 ± 0.32	964.79 ± 0.32	960.67 ± 0.32	–
x1 = 0.6501	977.39 ± 0.34	973.31 ± 0.34	969.21 ± 0.34	–
x1 = 0.7005	985.59 ± 0.36	981.53 ± 0.36	977.45 ± 0.36	–
x1 = 0.7479	992.48 ± 0.39	988.45 ± 0.39	984.39 ± 0.38	–
x1 = 0.8002	1000.19 ± 0.41	996.18 ± 0.41	992.15 ± 0.41	–
x1 = 0.8502	1006.55 ± 0.44	1002.56 ± 0.44	998.55 ± 0.44	–
x1 = 0.8967	1012.63 ± 0.46	1008.66 ± 0.46	1004.66 ± 0.46	–
x1 = 0.9501	1018.78 ± 0.49	1014.82 ± 0.49	1010.85 ± 0.49	–
